In paper PMC8459971, “Evaluation of the hepatotoxicity of the novel GPR40 (FFAR1) agonist CPL207280 in the rat and monkey” (PLoS ONE, 2021):
Several values for one entry are separate records, joined by “and”; a condition that tells them apart may be missing. Equal entries are not always repeated.

Key:
[1] = tested on: HepG2; assay: Viability assay, HepG2 cells, MTT test, 48 h; format: cell-based, human; conditions: sheet Fig1 panel B (HepG2), 48 h, replicates, in % (unit assumed)
Description: (§1) To study the viability of the liver cells, 5 × 10^3 HepG2 (ATCC®) or human primary cells (ThermoFisher Scientific, USA) were seeded in 100 μL of DMEM media (Gibco; Thermo Fisher Scientific, USA) supplemented with fetal bovine serum (FBS)- in a 96-well plate. […] The experiments were performed in triplicates.

[2] = Viability assay, HepG2 cells, MTT test, 48 h; format: cell-based, human; conditions: human, HepG2 cells, sheet Fig1 panel B (HepG2), 48 h, replicates, read-out: viability, normalized to DMSO-treated controls
Description: as §1

[3] = 600 mg/kg for 14 days; cited from earlier work
[4] = Viability assay, human primary hepatocytes, RT-glo, 48 h; format: cell-based; conditions: human, primary human hepatocytes, sheet Fig1 panel C (primary human hepatocytes), 48 h, replicates, read-out: viability, normalized to DMSO-treated controls
Description: as §1

[5] = tested on: human primary hepatocytes; assay: as above; format: cell-based; conditions: 48 h
Description: as §1

[6] = Stability in microsomes, dog; format: in vitro ADME; conditions: for average DEG [%]: dog microsomes, with cofactors
Description: (§2) The final incubation volume was 500 μL. Two control compounds (verapamil and donepezil) were included for each microsomal species, along with the appropriate vehicle control. The reactions were terminated by transferring 50 μL of incubate to 100 μL methanol containing an internal standard (metoprolol) at appropriate time points (0, 10, 20, 40, 60, and 120 min for the test compound and 0, 5, 10, 20, 40, and 60 min for the control compounds). The termination plates were centrifuged at 4000 x g at 4°C for 30 min to precipitate the protein. The supernatants were then collected for analysis, and LC-MS/MS was used for detection purposes. The system consisted of an Acquity™ Binary Solvent Manager, Acquity™ 4-position heated column manager, 2777 Ultra High Pressure Autosampler, and a Xevo-TQ MS triple quadrupole mass spectrometer (Waters Ltd., Herts, UK). This process was carried out twice.

[7] = Stability in microsomes, monkey; format: in vitro ADME; conditions: for average DEG [%]: monkey microsomes, with cofactors
Description: as §2

[8] = Stability in microsomes, mini pig; format: in vitro ADME; conditions: for average DEG [%]: minipig microsomes, with cofactors
Description: as §2

[9] = molecular target: BSEP (Homo sapiens, UniProt O95342); assay: Vesicular transport inhibition assay, BSEP
Sequence of BSEP (O95342 whole entry): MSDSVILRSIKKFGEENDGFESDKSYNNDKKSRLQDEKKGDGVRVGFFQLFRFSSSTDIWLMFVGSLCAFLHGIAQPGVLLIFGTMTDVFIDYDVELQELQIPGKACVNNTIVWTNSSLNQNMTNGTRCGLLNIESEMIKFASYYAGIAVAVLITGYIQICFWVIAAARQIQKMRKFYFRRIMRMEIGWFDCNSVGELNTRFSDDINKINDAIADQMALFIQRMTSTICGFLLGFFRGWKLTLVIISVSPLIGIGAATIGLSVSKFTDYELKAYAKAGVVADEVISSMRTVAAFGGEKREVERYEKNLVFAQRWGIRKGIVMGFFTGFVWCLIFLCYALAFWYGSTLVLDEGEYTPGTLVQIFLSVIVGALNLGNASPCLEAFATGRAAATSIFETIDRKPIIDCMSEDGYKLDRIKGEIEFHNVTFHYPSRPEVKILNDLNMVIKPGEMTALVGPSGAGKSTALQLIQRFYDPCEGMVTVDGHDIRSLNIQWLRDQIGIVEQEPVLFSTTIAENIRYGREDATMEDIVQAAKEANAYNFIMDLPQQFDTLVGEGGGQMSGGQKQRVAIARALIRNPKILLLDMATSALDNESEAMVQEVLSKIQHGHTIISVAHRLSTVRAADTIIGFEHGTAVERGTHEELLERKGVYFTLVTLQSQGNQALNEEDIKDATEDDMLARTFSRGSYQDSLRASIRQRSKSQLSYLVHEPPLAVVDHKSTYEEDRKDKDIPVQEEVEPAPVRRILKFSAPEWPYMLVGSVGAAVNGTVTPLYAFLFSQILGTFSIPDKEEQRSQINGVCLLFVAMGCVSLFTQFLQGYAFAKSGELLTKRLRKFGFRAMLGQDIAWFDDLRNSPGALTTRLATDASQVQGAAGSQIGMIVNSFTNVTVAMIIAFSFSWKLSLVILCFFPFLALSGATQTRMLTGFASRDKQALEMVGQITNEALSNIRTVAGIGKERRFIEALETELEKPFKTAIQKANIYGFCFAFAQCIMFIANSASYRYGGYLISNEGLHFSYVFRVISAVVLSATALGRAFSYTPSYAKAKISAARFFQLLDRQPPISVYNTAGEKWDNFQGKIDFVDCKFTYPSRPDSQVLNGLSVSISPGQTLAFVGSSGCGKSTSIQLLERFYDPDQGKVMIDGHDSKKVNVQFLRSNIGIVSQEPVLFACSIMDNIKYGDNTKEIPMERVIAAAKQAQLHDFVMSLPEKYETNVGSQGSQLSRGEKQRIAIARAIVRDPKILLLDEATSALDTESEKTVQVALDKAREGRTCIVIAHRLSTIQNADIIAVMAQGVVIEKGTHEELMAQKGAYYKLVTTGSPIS
Description: In the vesicular transport inhibition assay (for BSEP, MRP) compounds were incubated with membrane vesicle preparations and the probe substrate. Incubations were carried out in the presence of 4 mM ATP or AMP to distinguish between transporter-mediated uptake and passive diffusion into the vesicles. For MRP2 and MRP3, reactions were carried out in the presence of 2 mM glutathione. Compounds were added to the reaction mixture in 0.75 μL of solvent (1% of the final incubation volume). […] Reactions were initiated by the addition of 25 μL of 12 mM MgATP (or 12 mM AMP in assay buffer as a background control) and preincubated separately. Reactions were quenched by the addition of 200 μL of ice-cold washing buffer and immediate filtration via glass fiber filters mounted on a 96-well plate (filter plate). The filters were washed (5 × 200 μL of ice-cold washing buffer), dried, and the amount of substrate inside the filtered vesicles was determined by liquid scintillation counting.

[10] = in vivo; conditions: both, Wistar Han, rat, 600 mg/kg, 14 days
[11] = Dog (Beagle) microsomes, mean n = 2
[12] = Monkey (Cynomolgus) microsomes, mean n = 2
[13] = Mini pig microsomes, mean n = 2

With `Cc1cc(OCCCS(C)(=O)=O)cc(C)c1-c1cccc(COc2ccc3c(c2)OC[C@H]3CC(=O)O)c1` [TAK-875, fasiglifam, reference compound] the “viability, normalized to DMSO-treated controls” value (from here on “viability, normalized”) ([1]; 3.125 uM) was 63.2509, the “viability, normalized” value ([1]; 6.25 uM) was 66.4311 and the “viability, normalized” value ([1]; 25 uM) was 47.9859 and 54.8143. The “viability, normalized” value ([1]; 50 uM) was 48.6926 and 45.8734, the “viability, normalized” value ([1]; 100 uM) was 25.4386 and 23.9576 and 12.1733 and the viability at 48 h, 25 µM ([2]; 25 uM) was 67.5%. The viability at 48 h, 50 µM ([2]; 50 uM) was 61.2%, the “effect on ALT, TBA, T-BIL in dogs” value [3] was “observed in only 2 of 6 animals” and the viability at 48 h, 0.78 µM ([4]; 0.78 uM) was 117%. For the same molecule, the viability at 48 h, 3.125 µM ([4]; 3.125 uM) was 113%, the viability at 48 h, 6.25 µM ([4]; 6.25 uM) was 89.7% and the viability at 48 h, 25 µM ([4]; 25 uM) was 64.7%. For the same molecule, the viability at 48 h, 50 µM ([4]; 50 uM) was 34.1%, the viability at 48 h, 100 µM ([4]; 100 uM) was 4.16% and the viability ([5]; human primary hepatocytes, concentrations up to 10 μM) was “Neither compound exhibited altered viability”. For the same molecule, the effect on growth ([5]; primary cells, 100 μM) was “abolished the growth”, the half-life at 3 μM [6, 11] was 112 min and the microsomal CLint at 3 μM [6, 11] was 12.4 µL/min/mg. The “average DEG [%]” value ([6]; 0 min) was 100.0%, the “average DEG [%]” value ([6]; 20 min) was 82.2% and the “average DEG [%]” value ([6]; 40 min) was 77.1%. The “average DEG [%]” value ([6]; 60 min) was 67.7%, the half-life at 3 μM [7, 12] was 30 min and the microsomal CLint at 3 μM [7, 12] was 39.2 µL/min/mg. The “average DEG [%]” value ([7]; 0 min) was 100.0%, the “average DEG [%]” value ([7]; 20 min) was 61.2% and the “average DEG [%]” value ([7]; 40 min) was 37.2%. For the same molecule, the “average DEG [%]” value ([7]; 60 min) was 32.0%, the half-life at 3 μM [8, 13] was 15 min and the microsomal CLint at 3 μM [8, 13] was 91.1 µL/min/mg. The “average DEG [%]” value ([8]; 0 min) was 100.0%, the “average DEG [%]” value ([8]; 20 min) was 29.4% and the “average DEG [%]” value ([8]; 40 min) was 13.1%. The “average DEG [%]” value ([8]; 60 min) was 5.83%, the “Accumulation (counts per minute; CPM) HEK293-BSEP” value ([9]; conc 0.41 µM) was 11727 CPM and 12245 CPM and 11981 CPM and the “Accumulation (counts per minute; CPM) HEK293-MOCK” value ([9]; conc 0.41 µM) was 463 CPM and 375 CPM and 363 CPM. For the same molecule, the “Accumulation (counts per minute; CPM) HEK293-BSEP” value ([9]; conc 1.23 µM) was 11757 CPM and 12666 CPM and 12491 CPM, the “Accumulation (counts per minute; CPM) HEK293-MOCK” value ([9]; conc 1.23 µM) was 465 CPM and 378 CPM and 379 CPM and the “Accumulation (counts per minute; CPM) HEK293-BSEP” value ([9]; conc 3.70 µM) was 11540 CPM and 12190 CPM and 12485 CPM. For the same molecule, the “Accumulation (counts per minute; CPM) HEK293-MOCK” value ([9]; conc 3.70 µM) was 406 CPM and 443 CPM and 391 CPM, the “Accumulation (counts per minute; CPM) HEK293-BSEP” value ([9]; conc 11.11 µM) was 11930 CPM and 12790 CPM and 12439 CPM and the “Accumulation (counts per minute; CPM) HEK293-MOCK” value ([9]; conc 11.11 µM) was 450 CPM and 398 CPM and 437 CPM. The “Accumulation (counts per minute; CPM) HEK293-BSEP” value ([9]; conc 33.33 µM) was 10294 CPM and 11069 CPM and 10674 CPM, the “Accumulation (counts per minute; CPM) HEK293-MOCK” value ([9]; conc 33.33 µM) was 418 CPM and 356 CPM and 425 CPM and the “Accumulation (counts per minute; CPM) HEK293-BSEP” value ([9]; conc 100 µM) was 6186 CPM and 6483 CPM and 6458 CPM. For the same molecule, the “Accumulation (counts per minute; CPM) HEK293-MOCK” value ([9]; conc 100 µM) was 375 CPM and 361 CPM and 372 CPM and the “exposure exceeding the CPL207280 exposure” value [10] was 200%.
